# In PubChem BioAssay AID1963829 (Molecular Pharmacology Branch, DTP, NCI, 2024):
# Test system: 935938-334-R-J1-PDC complex spheroid viability
# Assay: Anticancer human tumor 935938-334-R-J1-PDC patient-derived small intestine adenocarcinoma cell line growth inhibition [POLQ]
# Settings: for IC50: curve of first compound; for viability, T/C: stronger effect = lower value
# In short: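 PDC + HUVEC + MSC complex spheroids; POLQ inhibitors ± partner drugs; top conc. at/near clinical Cmax, else 10 microM (SN-38 1 microM), half-log dilutions; 37 degrees C, 5% CO2.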
# [1] = second compound 0.0316 µM, first compound 0.0316 µM
# [2] = second compound 0.0316 µM, first compound 0.1 µM
# [3] = second compound 0.0316 µM, first compound 0.316 µM
# [4] = second compound 0.0316 µM, first compound 1 µM
# [5] = second compound 0.0316 µM, first compound 3.16 µM
# [6] = second compound 0.0316 µM, first compound 10 µM
# [7] = second compound 0.1 µM, first compound 0.0316 µM
# [8] = second compound 0.1 µM, first compound 0.1 µM
# [9] = second compound 0.1 µM, first compound 0.316 µM
# [10] = second compound 0.1 µM, first compound 1 µM
# [11] = second compound 0.1 µM, first compound 3.16 µM
# [12] = second compound 0.1 µM, first compound 10 µM
# [13] = second compound 0.316 µM, first compound 0.0316 µM
# [14] = second compound 0.316 µM, first compound 0.1 µM
# [15] = second compound 0.316 µM, first compound 0.316 µM
# [16] = second compound 0.316 µM, first compound 1 µM
# [17] = second compound 0.316 µM, first compound 3.16 µM
# [18] = second compound 0.316 µM, first compound 10 µM
# [19] = second compound 1 µM, first compound 0.0316 µM
# [20] = second compound 1 µM, first compound 0.1 µM
# [21] = second compound 1 µM, first compound 0.316 µM
# [22] = second compound 1 µM, first compound 1 µM
# [23] = second compound 1 µM, first compound 3.16 µM
# [24] = second compound 1 µM, first compound 10 µM
# [25] = second compound 3.16 µM, first compound 0.0316 µM
# [26] = second compound 3.16 µM, first compound 0.1 µM
# [27] = second compound 3.16 µM, first compound 0.316 µM
# [28] = second compound 3.16 µM, first compound 1 µM
# [29] = second compound 3.16 µM, first compound 3.16 µM
# [30] = second compound 3.16 µM, first compound 10 µM
# [31] = second compound 10 µM, first compound 0.0316 µM
# [32] = second compound 10 µM, first compound 0.1 µM
# [33] = second compound 10 µM, first compound 0.316 µM
# [34] = second compound 10 µM, first compound 1 µM
# [35] = second compound 10 µM, first compound 3.16 µM
# [36] = second compound 10 µM, first compound 10 µM
# 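Also: spheroids exposed to drugs for seven days before viability read.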
# 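For viability, T/C in this document: 100% = DMSO vehicle control wells.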
smiles,measurement,setting,value
CCc1cc2c(N3CCc4c(cc(Cn5ccnc5)cc4-c4cn(C)nc4C(F)(F)F)C3=O)cc(C)nc2c(OC)n1 + Nc1ccc(C#CCN(C(=O)Cc2ncc(C(F)(F)F)cc2C(F)(F)F)c2ccc(F)cc2)nn1,IC50,second compound 0.0316 µM,> 10 µM
same,IC50,second compound 0.1 µM,> 10 µM
same,IC50,second compound 0.316 µM,> 10 µM
same,IC50,second compound 1 µM,> 10 µM
same,IC50,second compound 3.16 µM,> 10 µM
same,IC50,second compound 10 µM,> 10 µM
same,"viability, T/C",[1],93.5%
same,"viability, T/C",[2],62%
same,"viability, T/C",[3],63.9%
same,"viability, T/C",[4],73.7%
same,"viability, T/C",[5],74.5%
same,"viability, T/C",[6],66.7%
same,"viability, T/C",[7],67.9%
same,"viability, T/C",[8],66.2%
same,"viability, T/C",[9],57.1%
same,"viability, T/C",[10],52.9%
same,"viability, T/C",[11],70.6%
same,"viability, T/C",[12],57.8%
same,"viability, T/C",[13],74.1%
same,"viability, T/C",[14],65%
same,"viability, T/C",[15],77.6%
same,"viability, T/C",[16],60.9%
same,"viability, T/C",[17],62.3%
same,"viability, T/C",[18],63.5%
same,"viability, T/C",[19],89.8%
same,"viability, T/C",[20],60.6%
same,"viability, T/C",[21],65%
same,"viability, T/C",[22],65.5%
same,"viability, T/C",[23],56.5%
same,"viability, T/C",[24],49.1%
same,"viability, T/C",[25],85.2%
same,"viability, T/C",[26],63.3%
same,"viability, T/C",[27],62%
same,"viability, T/C",[28],58.1%
same,"viability, T/C",[29],72.2%
same,"viability, T/C",[30],56.6%
same,"viability, T/C",[31],70.5%
same,"viability, T/C",[32],75.1%
same,"viability, T/C",[33],82.3%
same,"viability, T/C",[34],72.8%
same,"viability, T/C",[35],66.4%
same,"viability, T/C",[36],61.1%
CCc1cc2c(N3CCc4c(cc(Cn5ccnc5)cc4-c4cn(C)nc4C(F)(F)F)C3=O)ccnc2c(OC)n1 + Nc1ccc(C#CCN(C(=O)Cc2ncc(C(F)(F)F)cc2C(F)(F)F)c2ccc(F)cc2)nn1,IC50,second compound 0.0316 µM,> 10 µM
same,IC50,second compound 0.1 µM,> 10 µM
same,IC50,second compound 0.316 µM,> 10 µM
same,IC50,second compound 1 µM,> 10 µM
same,IC50,second compound 3.16 µM,> 10 µM
same,IC50,second compound 10 µM,> 10 µM
same,"viability, T/C",[1],79.9%
same,"viability, T/C",[2],57.4%
same,"viability, T/C",[3],52.4%
same,"viability, T/C",[4],70.4%
same,"viability, T/C",[5],59.1%
same,"viability, T/C",[6],60.8%
same,"viability, T/C",[7],88.2%
same,"viability, T/C",[8],68%
same,"viability, T/C",[9],64.5%
same,"viability, T/C",[10],57.4%
same,"viability, T/C",[11],70%
same,"viability, T/C",[12],60.7%
same,"viability, T/C",[13],88.8%
same,"viability, T/C",[14],66%
same,"viability, T/C",[15],67.9%
same,"viability, T/C",[16],63.5%
same,"viability, T/C",[17],63.5%
same,"viability, T/C",[18],61.7%
same,"viability, T/C",[19],91.2%
same,"viability, T/C",[20],67.1%
same,"viability, T/C",[21],82.7%
same,"viability, T/C",[22],70.5%
same,"viability, T/C",[23],59.5%
same,"viability, T/C",[24],64.4%
same,"viability, T/C",[25],90.6%
same,"viability, T/C",[26],97.6%
same,"viability, T/C",[27],70.3%
same,"viability, T/C",[28],64.6%
same,"viability, T/C",[29],72.5%
same,"viability, T/C",[30],60.2%
same,"viability, T/C",[31],80.7%
same,"viability, T/C",[32],82.2%
same,"viability, T/C",[33],85.5%
same,"viability, T/C",[34],64.3%
same,"viability, T/C",[35],56.7%
same,"viability, T/C",[36],66.9%
COc1cc2cc(C(=O)CCC(=O)O)sc2cc1OC + Nc1ccc(C#CCN(C(=O)Cc2ncc(C(F)(F)F)cc2C(F)(F)F)c2ccc(F)cc2)nn1,IC50,second compound 0.0316 µM,> 10 µM
same,IC50,second compound 0.1 µM,> 10 µM
same,IC50,second compound 0.316 µM,> 10 µM
same,IC50,second compound 1 µM,> 10 µM
same,IC50,second compound 3.16 µM,> 10 µM
same,IC50,second compound 10 µM,> 10 µM
same,"viability, T/C",[1],102%
same,"viability, T/C",[2],101%
same,"viability, T/C",[3],101%
same,"viability, T/C",[4],93.6%
same,"viability, T/C",[5],87.7%
same,"viability, T/C",[6],84.5%
same,"viability, T/C",[7],99%
same,"viability, T/C",[8],92%
same,"viability, T/C",[9],95.5%
same,"viability, T/C",[10],108%
same,"viability, T/C",[11],81.7%
same,"viability, T/C",[12],87%
same,"viability, T/C",[13],108%
same,"viability, T/C",[14],102%
same,"viability, T/C",[15],89.5%
same,"viability, T/C",[16],106%
same,"viability, T/C",[17],113%
same,"viability, T/C",[18],108%
same,"viability, T/C",[19],89.6%
same,"viability, T/C",[20],114%
same,"viability, T/C",[21],78.4%
same,"viability, T/C",[22],81.7%
same,"viability, T/C",[23],110%
same,"viability, T/C",[24],112%
same,"viability, T/C",[25],108%
same,"viability, T/C",[26],90.9%
same,"viability, T/C",[27],84.1%
same,"viability, T/C",[28],105%
same,"viability, T/C",[29],103%
same,"viability, T/C",[30],81.1%
same,"viability, T/C",[31],101%
same,"viability, T/C",[32],95.8%
same,"viability, T/C",[33],101%
same,"viability, T/C",[34],103%
same,"viability, T/C",[35],82%
same,"viability, T/C",[36],74.5%
O=C(Nc1ccc(O)c(NS(=O)(=O)c2ccc(F)cc2)c1)c1ccc(-c2ccccc2)cc1 + Nc1ccc(C#CCN(C(=O)Cc2ncc(C(F)(F)F)cc2C(F)(F)F)c2ccc(F)cc2)nn1,IC50,second compound 0.0316 µM,> 10 µM
same,IC50,second compound 0.1 µM,> 10 µM
same,IC50,second compound 0.316 µM,> 10 µM
same,IC50,second compound 1 µM,> 10 µM
same,IC50,second compound 3.16 µM,> 10 µM
same,IC50,second compound 10 µM,7.74 µM
same,"viability, T/C",[1],107%
same,"viability, T/C",[2],120%
same,"viability, T/C",[3],108%
same,"viability, T/C",[4],89.2%
same,"viability, T/C",[5],81.7%
same,"viability, T/C",[6],64.6%
same,"viability, T/C",[7],91.9%
same,"viability, T/C",[8],83.1%
same,"viability, T/C",[9],91.3%
same,"viability, T/C",[10],106%
same,"viability, T/C",[11],104%
same,"viability, T/C",[12],79%
same,"viability, T/C",[13],112%
same,"viability, T/C",[14],92.9%
same,"viability, T/C",[15],96.8%
same,"viability, T/C",[16],110%
same,"viability, T/C",[17],112%
same,"viability, T/C",[18],67.2%
same,"viability, T/C",[19],83.1%
same,"viability, T/C",[20],105%
same,"viability, T/C",[21],114%
same,"viability, T/C",[22],126%
same,"viability, T/C",[23],112%
same,"viability, T/C",[24],59.4%
same,"viability, T/C",[25],91.8%
same,"viability, T/C",[26],98%
same,"viability, T/C",[27],111%
same,"viability, T/C",[28],101%
same,"viability, T/C",[29],116%
same,"viability, T/C",[30],70.9%
same,"viability, T/C",[31],127%
same,"viability, T/C",[32],85.6%
same,"viability, T/C",[33],101%
same,"viability, T/C",[34],94.5%
same,"viability, T/C",[35],99.5%
same,"viability, T/C",[36],35.9%
